In publication PMC10436550, “Subacute toxicity evaluations of LPM3480392 in rats, a full µ-opioid receptor biased agonist” (Frontiers in Pharmacology, 2023):

Test system: Sprague Dawley (SD) rats
Assay: Organ weight and ratios, 4-week subacute toxicity study
Type: in vivo, rat
Conditions: male rats
Method: Complete gross necropsies were conducted on all surviving animals at the end of treatment (the day after the last dosing) and recovery periods. The following selected organs were weighed and evaluated in terms of organ/body or organ/brain weight ratios: brain, kidneys, adrenals, testes, ovaries, uterus, epididymides, thymus, spleen, heart and liver. Paired organs were weighed together. Organ-to-body weight ratio = Organ weight(g)/Body weight(g) × 100%, and Organ-to-brain weight ratio = Organ weight(g)/Brain weight(g) × 100%.

[1] = 0.6 mg/kg/day, End of recovery phase
[2] = 1.2 mg/kg/day, End of dosing phase
[3] = 1.2 mg/kg/day, End of recovery phase
[4] = 2.4 mg/kg/day, End of dosing phase
[5] = 2.4 mg/kg/day, End of recovery phase

SMILES: Fc1ccc([C@]2(CCNCc3cccc(Cl)c3)CCO[C@]3(CCOC3)C2)nc1 [LPM3480392]
- Organ weight, Heart [1]: 1.431 ± 0.112 g
- Organ weight, Liver [1]: 9.943 ± 1.685 g
- Organ weight, Spleen [1]: 0.774 ± 0.108 g
- Organ weight, Thymus [1]: 0.470 ± 0.076 g
- Organ-to-body weight ratio, Adrenal gland [1]: 0.013 ± 0.002%
- Organ-to-body weight ratio, Brain [1]: 0.534 ± 0.040%
- Organ-to-body weight ratio, Epididymis [1]: 0.338 ± 0.036%
- Organ-to-body weight ratio, Heart [1]: 0.337 ± 0.020%
- Organ-to-body weight ratio, Liver [1]: 2.327 ± 0.250%
- Organ-to-body weight ratio, Spleen [1]: 0.182 ± 0.018%
- Organ-to-body weight ratio, Thymus [1]: 0.110 ± 0.016%
- Organ-to-brain weight ratio, Adrenal gland [1]: 2.52 ± 0.37%
- Organ-to-brain weight ratio, Epididymis [1]: 63.42 ± 6.91%
- Organ-to-brain weight ratio, Heart [1]: 63.29 ± 4.73%
- Organ-to-brain weight ratio, Liver [1]: 441.01 ± 85.94%
- Organ-to-brain weight ratio, Spleen [1]: 34.27 ± 5.33%
- Organ-to-brain weight ratio, Thymus [1]: 20.83 ± 3.66%
- Terminal BW [1]: 425.2 ± 26.4 g
- Organ weight, Adrenal gland [2]: 0.052 ± 0.007 g
- Organ weight, Brain [2]: 2.015 ± 0.137 g
- Organ weight, Epididymis [2]: 1.020 ± 0.040 g
- Organ weight, Heart [2]: 1.199 ± 0.140 g
- Organ weight, Liver [2]: 7.643 ± 0.801 g
- Organ weight, Spleen [2]: 0.703 ± 0.103 g
- Organ weight, Thymus [2]: 0.425 ± 0.115 g
- Organ-to-body weight ratio, Adrenal gland [2]: 0.017 ± 0.002%
- Organ-to-body weight ratio, Brain [2]: 0.655 ± 0.040%
- Organ-to-body weight ratio, Epididymis [2]: 0.332 ± 0.030%
- Organ-to-body weight ratio, Heart [2]: 0.388 ± 0.025 %
- Organ-to-body weight ratio, Liver [2]: 2.473 ± 0.100%
- Organ-to-body weight ratio, Spleen [2]: 0.227 ± 0.026%
- Organ-to-body weight ratio, Thymus [2]: 0.136 ± 0.028%
- Organ-to-brain weight ratio, Adrenal gland [2]: 2.59 ± 0.37%
- Organ-to-brain weight ratio, Epididymis [2]: 50.88 ± 4.79%
- Organ-to-brain weight ratio, Heart [2]: 59.48 ± 5.54%
- Organ-to-brain weight ratio, Liver [2]: 378.95 ± 25.83%
- Organ-to-brain weight ratio, Spleen [2]: 35.01 ± 5.62%
- Organ-to-brain weight ratio, Thymus [2]: 20.87 ± 4.42%
- Terminal BW [2]: 308.5 ± 22.5 g
- Organ weight, Adrenal gland [3]: 0.060 ± 0.010 g
- Organ weight, Brain [3]: 2.177 ± 0.033 g
- Organ weight, Epididymis [3]: 1.351 ± 0.094 g
- Organ weight, Heart [3]: 1.483 ± 0.081 g
- Organ weight, Liver [3]: 10.423 ± 1.077 g
- Organ weight, Spleen [3]: 0.814 ± 0.089 g
- Organ weight, Thymus [3]: 0.393 ± 0.042 g
- Organ-to-body weight ratio, Adrenal gland [3]: 0.014 ± 0.003%
- Organ-to-body weight ratio, Brain [3]: 0.514 ± 0.031%
- Organ-to-body weight ratio, Epididymis [3]: 0.318 ± 0.010%
- Organ-to-body weight ratio, Heart [3]: 0.349 ± 0.017%
- Organ-to-body weight ratio, Liver [3]: 2.451 ± 0.149%
- Organ-to-body weight ratio, Spleen [3]: 0.192 ± 0.022%
- Organ-to-body weight ratio, Thymus [3]: 0.093 ± 0.013%
- Organ-to-brain weight ratio, Adrenal gland [3]: 2.74 ± 0.50%
- Organ-to-brain weight ratio, Epididymis [3]: 62.05 ± 4.34%
- Organ-to-brain weight ratio, Heart [3]: 68.08 ± 3.40%
- Organ-to-brain weight ratio, Liver [3]: 478.76 ± 49.84%
- Organ-to-brain weight ratio, Spleen [3]: 37.41 ± 4.09%
- Organ-to-brain weight ratio, Thymus [3]: 18.03 ± 1.83%
- Terminal BW [3]: 424.6 ± 23.0 g
- Organ weight, Adrenal gland [4]: 0.052 ± 0.004 g
- Organ weight, Brain [4]: 2.031 ± 0.066 g
- Organ weight, Epididymis [4]: 0.904 ± 0.104 g
- Organ weight, Heart [4]: 1.172 ± 0.071 g
- Organ weight, Liver [4]: 7.348 ± 0.497 g
- Organ weight, Spleen [4]: 0.686 ± 0.129 g
- Organ weight, Thymus [4]: 0.394 ± 0.075 g
- Organ-to-body weight ratio, Adrenal gland [4]: 0.018 ± 0.002%
- Organ-to-body weight ratio, Brain [4]: 0.689 ± 0.061%
- Organ-to-body weight ratio, Epididymis [4]: 0.305 ± 0.028%
- Organ-to-body weight ratio, Heart [4]: 0.397 ± 0.037 %
- Organ-to-body weight ratio, Liver [4]: 2.487 ± 0.195%
- Organ-to-body weight ratio, Spleen [4]: 0.231 ± 0.033%
- Organ-to-body weight ratio, Thymus [4]: 0.132 ± 0.019%
- Organ-to-brain weight ratio, Adrenal gland [4]: 2.59 ± 0.24%
- Organ-to-brain weight ratio, Epididymis [4]: 44.58 ± 5.64 %
- Organ-to-brain weight ratio, Heart [4]: 57.77 ± 3.83%
- Organ-to-brain weight ratio, Liver [4]: 361.66 ± 16.84 %
- Organ-to-brain weight ratio, Spleen [4]: 33.71 ± 5.76%
- Organ-to-brain weight ratio, Thymus [4]: 19.36 ± 3.42%
- Terminal BW [4]: 296.6 ± 24.2 g
- Organ weight, Adrenal gland [5]: 0.055 ± 0.009 g
- Organ weight, Brain [5]: 2.185 ± 0.147 g
- Organ weight, Epididymis [5]: 1.239 ± 0.114 g
- Organ weight, Heart [5]: 1.360 ± 0.262 g
- Organ weight, Liver [5]: 9.451 ± 1.196 g
- Organ weight, Spleen [5]: 0.775 ± 0.172 g
- Organ weight, Thymus [5]: 0.386 ± 0.038 g
- Organ-to-body weight ratio, Adrenal gland [5]: 0.014 ± 0.002%
- Organ-to-body weight ratio, Brain [5]: 0.559 ± 0.076%
- Organ-to-body weight ratio, Epididymis [5]: 0.315 ± 0.026%
- Organ-to-body weight ratio, Heart [5]: 0.342 ± 0.024%
- Organ-to-body weight ratio, Liver [5]: 2.391 ± 0.064%
- Organ-to-body weight ratio, Spleen [5]: 0.194 ± 0.023%
- Organ-to-body weight ratio, Thymus [5]: 0.099 ± 0.013%
- Organ-to-brain weight ratio, Adrenal gland [5]: 2.55 ± 0.51%
- Organ-to-brain weight ratio, Epididymis [5]: 56.82 ± 5.54%
- Organ-to-brain weight ratio, Heart [5]: 62.11 ± 10.37%
- Organ-to-brain weight ratio, Liver [5]: 432.91 ± 49.50%
- Organ-to-brain weight ratio, Spleen [5]: 35.31 ± 6.72%
- Organ-to-brain weight ratio, Thymus [5]: 17.77 ± 2.29%
- Terminal BW [5]: 395.7 ± 53.7 g
